# Source: US7015244B1 (priority 1998, dated 2006)
# Experiments:
# tumor = conditions: Phase II, cytotoxic doses; cited from earlier work
# [1] = tested on: human epidermoid cells, virally infected with HSV-2; conditions: cited from earlier work
# [2] = human, inhaled or intranasal
# [3] = tested on: human epidermoid cells, virally infected with HSV-2
# [4] = tested on: human epidermoid cells, virally infected with HSV-2; conditions: cited from earlier work; remark: listed apart in the source
SMILES,hematologic toxicity (tumor),overall tumor response rate (tumor),concentrations that did not reduce cell viability [1],"In Vivo Dose for Average 1200 Gram Lungs, Cytotoxic Max [2] [ng]","Trichothecene in Vitro Concentration, Cytotoxic Min [3] [ng/mL]","Trichothecene in Vitro Concentration, Toxic Lo [3] [ng/mL]","Trichothecene in Vitro Concentration, Cytotoxic Max ([3]; human) [ng/mL]","Trichothecene in Vitro Concentration, Inhibitory 50% [4] [ng/mL]","Trichothecene in Vitro Concentration, Inhibitory 80% [4] [ng/mL]","Trichothecene in Vitro Concentration, Inhibitory 90% [4] [ng/mL]","Trichothecene in Vitro Concentration, Inhibitory 99% [4] [ng/mL]",inhibition of hyperactive protein synthesis [4] [%]
CC(=O)OC[C@]12CCC(C)=C[C@H]1O[C@@H]1[C@H](O)[C@@H](OC(C)=O)[C@@]2(C)[C@]12CO2 [Anguidine],considerable hematologic toxicity,low,–,–,–,–,–,–,–,–,–,–
CC(=O)OC[C@]12CCC(C)=C[C@H]1O[C@@H]1[C@H](O)[C@@H](OC(C)=O)[C@@]2(C)[C@]12CO2 [DAS],–,–,up to 200 ng/ml,240000,6,201,200,2.3,4.0,4.5,5.0,~99
